According to patent publication US5877166A, “Enantiomerically pure 2-aminopurine phosphonate nucleotide analogs as antiviral agents” (priority 1997, dated 1999):
≈ marks a conversion by molar mass, not a printed value. Where two headings read alike, the source gives them in different places.

How the values were obtained:
HCMV, Strain D-16 = assay: Antiviral activity (plaque reduction) vs. HCMV, Strain D-16 in MRC-5 cells; type: cell-based, human cytomegalovirus (HCMV); settings: for TI (therapeutic index, ratio of the median cytotoxic dose to the median effective dose): CD50/ED50, 4320 min; for inhibition at 1 µg/mL / inhibition at 3.2 µg/mL / inhibition at 10 µg/mL / inhibition at 32 µg/mL / inhibition at 100 µg/mL / inhibition at 316 µg/mL: Human betaherpesvirus 5, MRC5, 72 h, read-out: % Reduction (plaques); for EC50: Human betaherpesvirus 5, MRC5, 72 hours, MRC-5 cells, read-out: ED50 (median effective antiviral dose)
in vitro = type: cell-based; settings: human, mrc-5 cells
Protocol: The herpes strain employed was Strain D-16 of HCMV. Continuous passaged MRC-5 cells obtained from the American Type Culture Collection (Bethesda, Md.) were used for testing, with growth medium consisting of Minimum Essential Medium (MEM) supplemented with 0.1% NaHCO3 and […] gentamicin.
To a 96-well microtiter plate containing an established 24-hour monolayer of cells from which the medium had been decanted was added 0.1 mL of varying (one-half log10) concentration of test compound, which incubated on the cell 15 minutes, after which 0.1 mL of virus in a concentration of 320 cell culture 50% infectious doses (CCID50)/0.1 mL was added. The plate was covered with plastic wrap and incubated at 37° C. The cells were examined microscopically after 72 hours. The ED50 (the median effective antiviral dose, i.e., that dose which is effective in 50% of the cells), CD50 (the median cytotoxic dose, i.e., that dose which produces cytotoxicity in 50% of the cells), and TI (the therapeutic index, meaning the ratio of the median cytotoxic dose to the median effective dose) were evaluated.

murine cytomegalovirus = assay: Activity against a murine cytomegalovirus infection in normal BALB/c mice; type: in vivo
Protocol: Activities of 1-5 and 1-6
Against a murine cytomegalovirus infection
^a Treatments were given once daily for 5 days starting 24 hours afte

[1] = Toxicity to uninfected BALB/c mice; type: in vivo; settings: mouse, in vivo, once daily for 15 days, read-out: Survivors (%)
From the text: (§1) Toxicity of 1-5 to uninfected BALB/c mice.
(§2) ^a Treatments were given once daily for 15 days.
(§3) ^b Difference in weight (in grams) between day 0 and day 16.

uninfected BALB/c mice = assay: Toxicity to uninfected BALB/c mice; type: in vivo; settings: for Kidney Damage (%) / Survivors/Total: once daily for 15 days; for Weight Change: between day 0 and day 16
From the text: as §1, §2, §3

[2] = 5 mg/kg/day, once daily for 5 days
[3] = 10 mg/kg/day, once daily for 5 days
[4] = 20 mg/kg/day, once daily for 5 days
[5] = 40 mg/kg/day, once daily for 5 days
[6] = 40 mg/kg/day, once daily for 5 days starting 24 hours after virus challenge

SMILES: Nc1ncc2ncn(CO[C@@H]3CCP(=O)(O)OC3)c2n1 [Compound 1-6]
- Number of Plaques (HCMV, Strain D-16; 1 μg/mL): 51.0
- Number of Plaques (HCMV, Strain D-16; 3.2 μg/mL): 56.0
- Number of Plaques (HCMV, Strain D-16; 10 μg/mL): 33.0
- Number of Plaques (HCMV, Strain D-16; 32 μg/mL): 6.5
- Number of Plaques (HCMV, Strain D-16; 100 μg/mL): 0.0
- Number of Plaques (HCMV, Strain D-16; 316 μg/mL): 0.0
- % Reduction (given as toxic) (HCMV, Strain D-16; 1000 μg/mL): toxic
- Number of Plaques (given as toxic) (HCMV, Strain D-16; 1000 μg/mL): toxic
- TI (therapeutic index, ratio of the median cytotoxic dose to the median effective dose) (HCMV, Strain D-16): 73
- inhibition at 1 µg/mL (HCMV, Strain D-16; 1 μg/mL): 37%
- inhibition at 3.2 µg/mL (HCMV, Strain D-16; 3.2 μg/mL): 31%
- inhibition at 10 µg/mL (HCMV, Strain D-16; 10 μg/mL): 59%
- inhibition at 32 µg/mL (HCMV, Strain D-16; 32 μg/mL): 92%
- inhibition at 100 µg/mL (HCMV, Strain D-16; 100 μg/mL): 100%
- inhibition at 316 µg/mL (HCMV, Strain D-16; 316 μg/mL): 100%
- EC50 (HCMV, Strain D-16): 6.7 µg/mL (≈ 22.4 µM)
- CC50 at 72 h (in vitro): 487 µg/mL (≈ 1630 µM)
- Mean Day to Death (murine cytomegalovirus; [2]): 6.4 ± 0.5 days
- Survivors (%) (murine cytomegalovirus; [2]): 0%
- Survivors/Total (murine cytomegalovirus; [2]): 0/10
- Mean Day to Death (murine cytomegalovirus; [3]): 7.4 ± 2.0 days
- Survivors (%) (murine cytomegalovirus; [3]): 0%
- Survivors/Total (murine cytomegalovirus; [3]): 0/10
- Mean Day to Death (murine cytomegalovirus; [4]): 6.1 ± 0.4 days
- Survivors (%) (murine cytomegalovirus; [4]): 30%
- Survivors/Total (murine cytomegalovirus; [4]): 3/10
- Mean Day to Death (murine cytomegalovirus; [5]): 8.3 ± 4.9 days
- Survivors (%) (murine cytomegalovirus; [5]): 40%
- Survivors/Total (murine cytomegalovirus; [6]): 4/10

SMILES: Nc1ncc2ncn(CO[C@@H](CO)CCP(=O)(O)O)c2n1 [Compound 1-5, 2-Amino-9-[(R(-)-1-hydroxymethyl-3-phosphono)-1-propyloxymethyl]-9H-purine]
- Mean Day to Death (murine cytomegalovirus; [2]): 9.6 ± 4.6 days
- Survivors (%) (murine cytomegalovirus; [2]): 50%
- Survivors/Total (murine cytomegalovirus; [2]): 5/10
- Mean Day to Death (murine cytomegalovirus; [3]): 10.0 ± 3.6 days
- Survivors (%) (murine cytomegalovirus; [3]): 70%
- Survivors/Total (murine cytomegalovirus; [3]): 7/10
- Mean Day to Death (murine cytomegalovirus; [4]): 11.5 ± 0.7 days
- Survivors (%) (murine cytomegalovirus; [4]): 80%
- Survivors/Total (murine cytomegalovirus; [4]): 8/10
- Mean Day to Death (murine cytomegalovirus; [5]): > 21 days
- Survivors (%) (murine cytomegalovirus; [5]): 100%
- Survivors/Total (murine cytomegalovirus; [6]): 10/10
- survival ([1]; 100 mg/kg/day): 100%
- survival ([1]; 200 mg/kg/day): 100%
- survival ([1]; 400 mg/kg/day): 100%
- survival ([1]; 600 mg/kg/day): 100%
- Kidney Damage (%) (uninfected BALB/c mice; 100 mg/kg/day): 0%
- Survivors/Total (uninfected BALB/c mice; 100 mg/kg/day): 3/3
- Weight Change (uninfected BALB/c mice; 100 mg/kg/day): +7.0 grams
- Kidney Damage (%) (uninfected BALB/c mice; 200 mg/kg/day): 0%
- Survivors/Total (uninfected BALB/c mice; 200 mg/kg/day): 3/3
- Weight Change (uninfected BALB/c mice; 200 mg/kg/day): +7.8 grams
- Kidney Damage (%) (uninfected BALB/c mice; 400 mg/kg/day): 0%
- Survivors/Total (uninfected BALB/c mice; 400 mg/kg/day): 3/3
- Weight Change (uninfected BALB/c mice; 400 mg/kg/day): +6.6 grams
- Kidney Damage (%) (uninfected BALB/c mice; 600 mg/kg/day): 0%
- Survivors/Total (uninfected BALB/c mice; 600 mg/kg/day): 3/3
- Weight Change (uninfected BALB/c mice; 600 mg/kg/day): +4.5 grams

SMILES: Nc1nc2c(ncn2COC(CO)CO)c(=O)[nH]1 [DHPG, 9-[(1,3dihydroxy-2-propoxy)methyl] guanine, reference compound]
- Number of Plaques (HCMV, Strain D-16; 1 μg/mL): 69.0
- Number of Plaques (HCMV, Strain D-16; 3.2 μg/mL): 57.0
- Number of Plaques (HCMV, Strain D-16; 10 μg/mL): 24.5
- Number of Plaques (HCMV, Strain D-16; 32 μg/mL): 2.0
- Number of Plaques (HCMV, Strain D-16; 100 μg/mL): 0.0
- Number of Plaques (HCMV, Strain D-16; 316 μg/mL): 0.0
- TI (therapeutic index, ratio of the median cytotoxic dose to the median effective dose) (HCMV, Strain D-16): > 44
- inhibition at 1 µg/mL (HCMV, Strain D-16; 1 μg/mL): 0%
- inhibition at 3.2 µg/mL (HCMV, Strain D-16; 3.2 μg/mL): 0%
- inhibition at 10 µg/mL (HCMV, Strain D-16; 10 μg/mL): 70%
- inhibition at 32 µg/mL (HCMV, Strain D-16; 32 μg/mL): 98%
- inhibition at 100 µg/mL (HCMV, Strain D-16; 100 μg/mL): 100%
- inhibition at 316 µg/mL (HCMV, Strain D-16; 316 μg/mL): 100%
- EC50 (HCMV, Strain D-16): 7.2 µg/mL (≈ 28.2 µM)
- CC50 at 72 h (in vitro): > 316 µg/mL
